Source: patent publication US9499550B2 (BRISTOL-MYERS SQUIBB COMPANY, priority 2012, dated 2016)
Like-named read-outs stand apart in the source and are kept apart here.

How the values were obtained:
[1] = tested on: HCV genotype 1a (H77 strain) replicon in HUH-7 cells; test: HCV replicon luciferase reporter assay, genotype 1a; format: cell-based; conditions: Hepatitis C virus, Huh-7, 72 h, HCV genotype 1a replicon luciferase, 3 days incubation
Procedure, shortened: (§1)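 Replicon inhibition for both genotypes was measured as Renilla luciferase signal (EnduRen, 7.5 μM final, 2 h) after 3-day, 37° C exposure of replicon-bearing HUH-7 cells in 4% FCS DMEM, 0.5% DMSO. The 1b construct carries S1179I; the 1a H77 construct carries P1496L and S2204I. Twenty-point, 3-fold dilutions were fitted four-parametrically for EC50, and CC50 was taken from multiplexed Cell Titer-Blue.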

[2] = tested on: HCV genotype 1b (Con1) replicon in HUH-7 cells; test: HCV replicon luciferase reporter assay, genotype 1b; format: cell-based; conditions: Hepatitis C virus, Huh-7, 72 h, HCV genotype 1b replicon luciferase, 3 days incubation
Procedure, shortened: as §1

Compound | EC50 ([1]; read-out: LE_1a (EC50, range)) [µM] | EC50 ([2]; read-out: LE_1b (EC50, range)) [µM] | EC50 ([1]; read-out: LE_1a (EC50)) [µM] | EC50 ([2]; read-out: LE_1b (EC50)) [µM]
CCCOc1cnc(O[C@@H]2C[C@H]3C(=O)N[C@]4(C(=O)NS(=O)(=O)C5(C)CC5)C[C@H]4/C=C\CC[C@@H](C)C[C@@H](C)[C@H](NC(=O)O[C@H](C)C(F)(F)F)C(=O)N3C2)c2ccccc12 [Compound 5085, (R)-1,1,1-trifluoropropan-2-yl ((2R,6S,7R,9R,13aS,14aR,16aS,Z)-7,9-dimethyl-14a-(((1-methylcyclopropyl)sulfonyl)carbamoyl)-5,16-dioxo-2-((4-propoxyisoquinolin-1-yl)oxy)-1,2,3,5,6,7,8,9,10,11,13a,14,14a,15,16,16a-hexadecahydrocyclopropa[e]pyrrolo[1,2-a][1,4]diazacyclopentadecin-6-yl)carbamate] | 0.00482 to 0.103 | 0.00482 to 0.103 |  | 
CCCOc1cnc(O[C@@H]2C[C@H]3C(=O)N[C@]4(C(=O)NS(=O)(=O)C5(C)CC5)C[C@H]4/C=C\CC[C@H](C)C[C@@H](C)[C@H](NC(=O)NC(C)(C)C(F)(F)F)C(=O)N3C2)c2ccccc12 [Compound 5086, (2R,6S,7R,9S,13aS,14aR,16aS,Z)-7,9-dimethyl-N-((1-methylcyclopropyl)sulfonyl)-5,16-dioxo-2-((4-propoxyisoquinolin-1-yl)oxy)-6-(3-(1,1,1-trifluoro-2-methylpropan-2-yl)ureido)-1,2,3,5,6,7,8,9,10,11,13a,14,14a,15,16,16a-hexadecahydrocyclopropa[e]pyrrolo[1,2-a][1,4]diazacyclopentadecine-14a-carboxamide] | > 0.0874 | > 0.0874 | 0.411 | 0.155
CCCOc1cnc(O[C@@H]2C[C@H]3C(=O)N[C@]4(C(=O)NS(=O)(=O)C5(C)CC5)C[C@H]4/C=C\CC[C@@H](C)C[C@@H](C)[C@H](NC(=O)NC(C)(C)C(F)(F)F)C(=O)N3C2)c2ccccc12 [Compound 5087, (2R,6S,7R,9R,13aS,14aR,16aS,Z)-7,9-dimethyl-N-((1-methylcyclopropyl)sulfonyl)-5,16-dioxo-2-((4-propoxyisoquinolin-1-yl)oxy)-6-(3-(1,1,1-trifluoro-2-methylpropan-2-yl)ureido)-1,2,3,5,6,7,8,9,10,11,13a,14,14a,15,16,16a-hexadecahydrocyclopropa[e]pyrrolo[1,2-a][1,4]diazacyclopentadecine-14a-carboxamide] | < 0.00546 | < 0.00546 |  | 
CCCOc1cnc(O[C@@H]2C[C@H]3C(=O)N[C@]4(C(=O)NS(=O)(=O)C5CC5)C[C@H]4/C=C\CC[C@H](C)C[C@@H](C)[C@H](NC(=O)OC(C)(C)C)C(=O)N3C2)c2ccccc12 [Compound 5088, tert-butyl ((2R,6S,7R,9S,13aS,14aR,16aS,Z)-14a-((cyclopropylsulfonyl)carbamoyl)-7,9-dimethyl-5,16-dioxo-2-((4-propoxyisoquinolin-1-yl)oxy)-1,2,3,5,6,7,8,9,10,11,13a,14,14a,15,16,16a-hexadecahydrocyclopropa[e]pyrrolo[1,2-a][1,4]diazacyclopentadecin-6-yl)carbamate] | > 0.0874 | 0.00482 to 0.103 | 0.103 | 0.0203
CCCOc1cnc(O[C@@H]2C[C@H]3C(=O)N[C@]4(C(=O)NS(=O)(=O)C5CC5)C[C@H]4/C=C\CC[C@@H](C)C[C@@H](C)[C@H](NC(=O)OC(C)(C)C)C(=O)N3C2)c2ccccc12 [Compound 5089, tert-butyl ((2R,6S,7R,9R,13aS,14aR,16aS,Z)-14a-((cyclopropylsulfonyl)carbamoyl)-7,9-dimethyl-5,16-dioxo-2-((4-propoxyisoquinolin-1-yl)oxy)-1,2,3,5,6,7,8,9,10,11,13a,14,14a,15,16,16a-hexadecahydrocyclopropa[e]pyrrolo[1,2-a][1,4]diazacyclopentadecin-6-yl)carbamate] | < 0.00546 | < 0.00546 |  | 
CCCOc1cnc(O[C@@H]2C[C@H]3C(=O)N[C@]4(C(=O)NS(=O)(=O)C5CC5)C[C@H]4/C=C\CC[C@H](C)C[C@@H](C)[C@H](NC(=O)OC(C)(C)C(F)(F)F)C(=O)N3C2)c2ccccc12 [Compound 5090, 1,1,1-trifluoro-2-methylpropan-2-yl((2R,6S,7R,9S,13aS,14aR,16aS,Z)-14a-((cyclopropylsulfonyl)carbamoyl)-7,9-dimethyl-5,16-dioxo-2-((4-propoxyisoquinolin-1-yl)oxy)-1,2,3,5,6,7,8,9,10,11,13a,14,14a,15,16,16a-hexadecahydrocyclopropa[e]pyrrolo[1,2-a][1,4]diazacyclopentadecin-6-yl)carbamate] | > 0.0874 | 0.00482 to 0.103 | 0.521 | 0.0874
CCCOc1cnc(O[C@@H]2C[C@H]3C(=O)N[C@]4(C(=O)NS(=O)(=O)C5CC5)C[C@H]4/C=C\CC[C@H](C)C[C@@H](C)[C@H](NC(=O)O[C@@H]4C[C@@H]5C[C@@H]5C4)C(=O)N3C2)c2ccccc12 [Compound 5092, (1R,3r,5S)-bicyclo[3.1.0]hexan-3-yl((2R,6S,7R,9S,13aS,14aR,16aS,Z)-14a-((cyclopropylsulfonyl)carbamoyl)-7,9-dimethyl-5,16-dioxo-2-((4-propoxyisoquinolin-1-yl)oxy)-1,2,3,5,6,7,8,9,10,11,13a,14,14a,15,16,16a-hexadecahydrocyclopropa[e]pyrrolo[1,2-a][1,4]diazacyclopentadecin-6-yl)carbamate] | > 0.0874 | 0.00482 to 0.103 |  | 
CCCOc1cnc(O[C@@H]2C[C@H]3C(=O)N[C@]4(C(=O)NS(=O)(=O)C5CC5)C[C@H]4/C=C\CC[C@@H](C)C[C@@H](C)[C@H](NC(=O)O[C@@H]4C[C@@H]5C[C@@H]5C4)C(=O)N3C2)c2ccccc12 [Compound 5093, (1R,3r,5S)-bicyclo[3.1.0]hexan-3-yl((2R,6S,7R,9R,13aS,14aR,16aS,Z)-14a-((cyclopropylsulfonyl)carbamoyl)-7,9-dimethyl-5,16-dioxo-2-((4-propoxyisoquinolin-1-yl)oxy)-1,2,3,5,6,7,8,9,10,11,13a,14,14a,15,16,16a-hexadecahydrocyclopropa[e]pyrrolo[1,2-a][1,4]diazacyclopentadecin-6-yl)carbamate] | 0.00482 to 0.103 | < 0.00546 |  | 
CCCOc1cnc(O[C@@H]2C[C@H]3C(=O)N[C@]4(C(=O)NS(=O)(=O)C5CC5)C[C@H]4/C=C\CC[C@H](C)C[C@@H](C)[C@H](NC(=O)O[C@H](C)C(F)(F)F)C(=O)N3C2)c2ccccc12 [Compound 5094, (R)-1,1,1-trifluoropropan-2-yl((2R,6S,7R,9S,13aS,14aR,16aS,Z)-14a-((cyclopropylsulfonyl)carbamoyl)-7,9-dimethyl-5,16-dioxo-2-((4-propoxyisoquinolin-1-yl)oxy)-1,2,3,5,6,7,8,9,10,11,13a,14,14a,15,16,16a-hexadecahydrocyclopropa[e]pyrrolo[1,2-a][1,4]diazacyclopentadecin-6-yl)carbamate] | > 0.0874 | > 0.0874 |  | 
CCCOc1cnc(O[C@@H]2C[C@H]3C(=O)N[C@]4(C(=O)NS(=O)(=O)C5CC5)C[C@H]4/C=C\CC[C@@H](C)C[C@@H](C)[C@H](NC(=O)O[C@H](C)C(F)(F)F)C(=O)N3C2)c2ccccc12 [Compound 5095, (R)-1,1,1-trifluoropropan-2-yl((2R,6S,7R,9R,13aS,14aR,16aS,Z)-14a-((cyclopropylsulfonyl)carbamoyl)-7,9-dimethyl-5,16-dioxo-2-((4-propoxyisoquinolin-1-yl)oxy)-1,2,3,5,6,7,8,9,10,11,13a,14,14a,15,16,16a-hexadecahydrocyclopropa[e]pyrrolo[1,2-a][1,4]diazacyclopentadecin-6-yl)carbamate] | 0.00482 to 0.103 | 0.00482 to 0.103 |  | 
CCCOc1cnc(O[C@@H]2C[C@H]3C(=O)N[C@]4(C(=O)NS(=O)(=O)C5CC5)C[C@H]4/C=C\CC[C@H](C)C[C@@H](C)[C@H](NC(=O)OCC4(C)CC4)C(=O)N3C2)c2ccccc12 [Compound 5096, (1-methylcyclopropyl)methyl ((2R,6S,7R,9S,13aS,14aR,16aS,Z)-14a-((cyclopropylsulfonyl)carbamoyl)-7,9-dimethyl-5,16-dioxo-2-((4-propoxyisoquinolin-1-yl)oxy)-1,2,3,5,6,7,8,9,10,11,13a,14,14a,15,16,16a-hexadecahydrocyclopropa[e]pyrrolo[1,2-a][1,4]diazacyclopentadecin-6-yl)carbamate] | > 0.0874 | 0.00482 to 0.103 |  | 
CCCOc1cnc(O[C@@H]2C[C@H]3C(=O)N[C@]4(C(=O)NS(=O)(=O)C5CC5)C[C@H]4/C=C\CC[C@@H](C)C[C@@H](C)[C@H](NC(=O)OCC4(C)CC4)C(=O)N3C2)c2ccccc12 [Compound 5097, (1-methylcyclopropyl)methyl ((2R,6S,7R,9R,13aS,14aR,16aS,Z)-14a-((cyclopropylsulfonyl)carbamoyl)-7,9-dimethyl-5,16-dioxo-2-((4-propoxyisoquinolin-1-yl)oxy)-1,2,3,5,6,7,8,9,10,11,13a,14,14a,15,16,16a-hexadecahydrocyclopropa[e]pyrrolo[1,2-a][1,4]diazacyclopentadecin-6-yl)carbamate] | < 0.00546 | < 0.00546 |  | 
CCCOc1cnc(O[C@@H]2C[C@H]3C(=O)N[C@]4(C(=O)NS(=O)(=O)C5CC5)C[C@H]4/C=C\CC[C@H](C)C[C@@H](C)[C@H](NC(=O)NC(C)(C)C(F)(F)F)C(=O)N3C2)c2ccccc12 [Compound 5098, (2R,6S,7R,9S,13aS,14aR,16aS,Z)—N-(cyclopropylsulfonyl)-7,9-dimethyl-5,16-dioxo-2-((4-propoxyisoquinolin-1-yl)oxy)-6-(3-(1,1,1-trifluoro-2-methylpropan-2-yl)ureido)-1,2,3,5,6,7,8,9,10,11,13a,14,14a,15,16,16a-hexadecahydrocyclopropa[e]pyrrolo[1,2-a][1,4]diazacyclopentadecine-14a-carboxamide] | > 0.0874 | > 0.0874 |  | 
